Here are results for two compounds from patent US11518735B2 (AE KYUNG INDUSTRIAL CO., LTD, priority 2017, dated 2022).

The series is described as follows: Thermal stability by HPLC analysis, samples heated in oven at 90° C. The series is classed as physicochemical. Conditions: for HPLC peak area: 90° C. oven; for change in peak area (degree of decomposition): after 24 hours versus initial peak area. How it is done:
The thermal stability tests were conducted by heating the compound samples of Formulas 3 and 7 in an oven maintained at 90° C. and measuring the degree of decomposition of each sample.

“Also recorded” adds a separate entry of the source.

`CCCCCCCCCC/C=C/C(CC(=O)NCCCCCCCCCCCCCCCCCC)C(=O)O` (stereo not shown) [Formula 3] had an HPLC peak area (0 hour) of 22760548, an HPLC peak area (1 hour) of 22871539 and an HPLC peak area (24 hours) of 22896857. Further, the “change in peak area (degree of decomposition)” value (90° C.) is listed as “little change in the peak area ratio”. Moreover, the “high-temperature stability compared with Formula 7” value (HPLC, 90° C.) is reported as “better high-temperature stability; also recorded: improved stability”.

As for `CCCCCCCC/C=C/CCCCCCCCNC(=O)CC(/C=C/CCCCCCCCCCCCCCCC)C(=O)O` (stereo not shown) [Formula 7, reference compound], the HPLC peak area worked out at 21694395 (0 hour), 10982003 (3 hours), 11400622 (6 hours) and 7124834 (24 hours). In addition, the “change in peak area (degree of decomposition)” value (90° C.) is listed as “nearly one third of the initial peak area”.
